This is an account of results in PubChem BioAssay (NCI).

The structures appear in SMILES notation.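 Following 48 hours of exposure in 96-well plates, responses at five concentrations were used to interpolate endpoints linearly. Definition used: TGI = concentration required for complete inhibition of growth.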

Test systems include CAKI-1 renal; DU-145 prostate; HCC-2998 colon; HOP-62 NSCLC; MDA-MB-231 breast; MDA-MB-435; NCI/ADR-RES ovarian; OVCAR-4 ovarian; RXF 393 renal; SF-539 CNS; SW-620 colon; TK-10 renal.
Common to all, as to assay: DTP human tumour cell line panel, 48 h

For orientation: TGI means the concentration at which net growth stops. Low values mean more potent growth arrest, high ones less potent growth arrest. Regarding `CC[C@]12C=CCN3CCC4(c5cc([C@@]6(C(=O)OC)CC7CN(CCc8c6[nH]c6ccccc86)C[C@@H]6CCC[C@H]76)c(OC)cc5N(C)C4[C@](O)(C(=O)OC)C1OC(C)=O)C32` (some centres not stated), the TGI is above 10 µM with CAKI-1 renal; 0.0749 µM in the test on DU-145 prostate; above 6.75 µM with HCC-2998 colon; 1.31 µM in the test on HOP-62 NSCLC; 0.536 µM in the test with MDA-MB-231 breast; 0.0249 µM with MDA-MB-435. The TGI with NCI/ADR-RES ovarian was 4.75 µM; with OVCAR-4 ovarian it was above 8.93 µM; in the test on RXF 393 renal it was 0.554 µM; with SF-539 CNS, 0.574 µM; in the test with SW-620 colon it was above 4.07 µM; in the test with TK-10 renal, above 10 µM.

Take `Cc1cccc(NC(=S)N/N=C(/c2ccccc2)c2ccccn2)c1`: the TGI was found to be 12.7 µM in the test on CAKI-1 renal; 9.34 µM in the test with DU-145 prostate; 19.7 µM in the test on HCC-2998 colon; 17.5 µM in the test with HOP-62 NSCLC; 6.73 µM in the test with MDA-MB-231 breast; 17.6 µM with MDA-MB-435. Besides, the TGI amounted to 6.63 µM in the test with NCI/ADR-RES ovarian; 17.2 µM with OVCAR-4 ovarian; 13.2 µM with RXF 393 renal; 12.8 µM in the test with SF-539 CNS; 20.4 µM in the test on SW-620 colon; 16 µM with TK-10 renal.

For the molecule `CCNc1ncnc2n[nH]nc12`, the TGI with CAKI-1 renal, with DU-145 prostate, in the test on HCC-2998 colon, with HOP-62 NSCLC, with MDA-MB-231 breast and in the test with MDA-MB-435 was above 100 µM each time. In addition, the TGI in the test with NCI/ADR-RES ovarian, in the test with OVCAR-4 ovarian, in the test with RXF 393 renal, with SF-539 CNS, in the test on SW-620 colon and in the test on TK-10 renal was above 100 µM each time.

On to `S=C1SC(c2ccc(Cl)cc2)(c2ccc(Cl)cc2)c2ccccc21`, for which the TGI in the test on CAKI-1 renal, in the test with DU-145 prostate, with HCC-2998 colon, with HOP-62 NSCLC, in the test with MDA-MB-231 breast and with MDA-MB-435 was above 100 µM throughout. Besides, the TGI with NCI/ADR-RES ovarian, in the test on OVCAR-4 ovarian, in the test on RXF 393 renal, with SF-539 CNS, in the test with SW-620 colon and in the test with TK-10 renal was above 100 µM each time.

For `CN(C)/C=N/S(=O)(=O)c1nn2c(C=O)c(-c3ccc(-c4ccc([N+](=O)[O-])cc4)o3)nc2s1`, the TGI in the test with CAKI-1 renal is 4.06 µM; in the test on DU-145 prostate it was 26.6 µM; in the test with HCC-2998 colon, 14.7 µM; in the test on HOP-62 NSCLC it was 27.7 µM; in the test with MDA-MB-231 breast, 20 µM; in the test with MDA-MB-435, 7.41 µM. The total growth inhibition concentration (TGI) was above 96.6 µM with NCI/ADR-RES ovarian; above 39.3 µM in the test on OVCAR-4 ovarian; 5.04 µM with RXF 393 renal; 11.8 µM with SF-539 CNS; above 23.5 µM in the test on SW-620 colon; 15.1 µM with TK-10 renal.

With `O=C1C[C@H]2[C@H](c3ccc(Br)cc3)[C@H]3C(=O)c4ccccc4NC(=O)[C@@H]3[C@@]2(O)c2ccccc2N1`, the TGI in the test with CAKI-1 renal was 28.3 µM; with DU-145 prostate, above 100 µM; in the test with HCC-2998 colon, 30.3 µM; in the test with HOP-62 NSCLC it was 49.7 µM; in the test with MDA-MB-231 breast it was 36.1 µM; with MDA-MB-435, 26.9 µM. The TGI in the test with NCI/ADR-RES ovarian was 61.9 µM; in the test on OVCAR-4 ovarian it was above 100 µM; in the test with RXF 393 renal it was 26 µM; in the test on SF-539 CNS, 54.7 µM; with SW-620 colon, above 100 µM; in the test with TK-10 renal, 56.8 µM.

`CCN(CC)c1nc(N(C)C)c2cc(OC)ccc2n1`: the TGI was above 100 µM in the test on CAKI-1 renal; above 100 µM in the test on DU-145 prostate; 46.4 µM in the test with HCC-2998 colon; above 100 µM in the test on HOP-62 NSCLC; above 100 µM with MDA-MB-231 breast; above 100 µM with MDA-MB-435. In addition, the TGI is above 100 µM with NCI/ADR-RES ovarian; above 100 µM in the test on OVCAR-4 ovarian; above 100 µM with RXF 393 renal; 55.5 µM in the test with SF-539 CNS; above 100 µM in the test on SW-620 colon; above 100 µM in the test with TK-10 renal.

For the molecule `COC(Cc1ccccc1)NC(C)=O` (configuration not stated), the TGI in the test on CAKI-1 renal, with DU-145 prostate, in the test with HCC-2998 colon, with HOP-62 NSCLC, in the test on MDA-MB-231 breast and in the test on MDA-MB-435 was above 100 µM in each case. The TGI in the test with NCI/ADR-RES ovarian, in the test on OVCAR-4 ovarian, in the test with RXF 393 renal, in the test on SF-539 CNS, in the test with SW-620 colon and in the test on TK-10 renal was above 100 µM each time.

Turning to `Cc1nc(C)c(N2CCN(C#N)CC2)c(=O)[nH]1`, the TGI in the test with CAKI-1 renal, with DU-145 prostate, in the test with HCC-2998 colon, in the test with HOP-62 NSCLC, in the test with MDA-MB-231 breast and in the test with MDA-MB-435 was above 100 µM each time. Moreover, the TGI in the test on NCI/ADR-RES ovarian, in the test with OVCAR-4 ovarian, in the test on RXF 393 renal, in the test on SF-539 CNS, with SW-620 colon and in the test with TK-10 renal was above 100 µM throughout.

Turning to `CC[C@@]1(O)C(=O)OCc2c1cc1n(c2=O)Cc2c-1nc1ccccc1c2/C=N\NC(=O)C(C)N` (some centres not stated), the TGI in the test on CAKI-1 renal was 2.57 µM; with DU-145 prostate, 0.398 µM; in the test with HCC-2998 colon, above 21.1 µM; in the test with HOP-62 NSCLC, 16 µM; with MDA-MB-231 breast, above 100 µM; in the test with MDA-MB-435, above 100 µM. The TGI in the test with NCI/ADR-RES ovarian was 4.26 µM; in the test on OVCAR-4 ovarian, above 100 µM; with RXF 393 renal, 9.18 µM; in the test on SF-539 CNS it was below 0.0282 µM; in the test with SW-620 colon, above 100 µM; with TK-10 renal it was above 100 µM.

As to `Cc1c2cccc-2c(OCCO)cc2c1[nH]c1ccccc12`, the TGI in the test with CAKI-1 renal was 3.67 µM; in the test with DU-145 prostate, above 50.1 µM; in the test with HCC-2998 colon, 12.1 µM; with HOP-62 NSCLC, 14.5 µM; with MDA-MB-231 breast, 6.56 µM; with MDA-MB-435 it was 15.8 µM. Besides, the TGI with NCI/ADR-RES ovarian is above 23.4 µM; in the test on OVCAR-4 ovarian, 13.5 µM; with RXF 393 renal, 5.37 µM; in the test on SF-539 CNS it was 3.5 µM; with SW-620 colon, above 74.7 µM; in the test on TK-10 renal, 14.2 µM.
